Here are results for three compounds from patent publication US7732607B2 (priority 2005, dated 2010).

The assay deals with human M3 receptors (Homo sapiens, UniProt P20309). The format is binding. The note with it: human clonal line TE671/RD.
human M3 receptors, sequence (P20309 whole entry): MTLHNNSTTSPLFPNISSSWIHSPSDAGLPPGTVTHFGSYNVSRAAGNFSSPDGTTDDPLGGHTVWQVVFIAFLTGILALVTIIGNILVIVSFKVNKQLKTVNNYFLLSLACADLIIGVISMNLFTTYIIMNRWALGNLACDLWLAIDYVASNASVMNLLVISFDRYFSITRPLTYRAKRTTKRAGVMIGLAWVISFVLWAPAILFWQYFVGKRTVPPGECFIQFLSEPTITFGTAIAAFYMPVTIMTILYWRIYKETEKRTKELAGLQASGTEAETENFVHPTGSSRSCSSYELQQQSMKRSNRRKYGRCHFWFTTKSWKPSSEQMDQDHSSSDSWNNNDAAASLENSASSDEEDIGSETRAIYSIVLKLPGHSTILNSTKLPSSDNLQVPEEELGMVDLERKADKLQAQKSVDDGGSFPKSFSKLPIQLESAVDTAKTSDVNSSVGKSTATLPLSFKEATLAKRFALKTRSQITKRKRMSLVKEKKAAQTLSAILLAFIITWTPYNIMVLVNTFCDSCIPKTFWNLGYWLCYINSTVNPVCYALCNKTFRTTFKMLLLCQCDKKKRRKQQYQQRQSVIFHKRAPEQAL
Consider `O=C(c1cc2ccccc2o1)N1CC(c2cccnc2)C2C1C1CCN2CC1` (stereo not drawn) [Compound 1, 5-(Benzofuran-2-ylcarbonyl)-3-pyridin-3-yl-1,5-diazatricyclo[5.2.2.0<2,6>]undecane], for which the “ability to inhibit [3H]QNB binding at muscarinic sites” value (“ability to inhibit [3H]QNB binding” for short) is “None of the compounds was able to inhibit [^3H]QNB binding”.

For the compound `COc1cccc2cc(C(=O)N3CC(c4cccnc4)C4C3C3CCN4CC3)oc12` (stereo not drawn) [Compound 2, 5-(7-Methoxybenzofuran-2-ylcarbonyl)-3-pyridin-3-yl-1,5-diazatricyclo[5.2.2.0<2,6>]undecane], the “ability to inhibit [3H]QNB binding” value is “None of the compounds was able to inhibit [^3H]QNB binding”.

For the compound `O=C(c1c[nH]c2ccccc12)N1CC(c2cccnc2)C2C1C1CCN2CC1` (stereo not drawn) [Compound 4, 5-(1H-Indol-3-ylcarbonyl)-3-pyridin-3-yl-1,5-diazatricyclo[5.2.2.0<2,6>]undecane], the “ability to inhibit [3H]QNB binding” value is “None of the compounds was able to inhibit [^3H]QNB binding”.
